In ChEMBL document CHEMBL1149353, “Exploring alternative Zn-binding groups in the design of HDAC inhibitors: squaric acid, N-hydroxyurea, and oxazoline analogues of SAHA” (Bioorg Med Chem Lett, 2006):
Activity calls are given as the source filed them. No cut-off for these calls is given here.

Molecular target: Histone deacetylase (Homo sapiens) (UniProt Q13547+O15379+Q9UBN7+Q92769+Q9UQL6+Q8WUI4+Q9BY41+Q96DB2+P56524+Q9UKV0+Q969S8)
Test: Inhibition of HDAC at <1 uM
Format: protein assay

Row | Activity | SMILES
1 | inactive | O=C(CCCCC/N=c1/c(S)c(O)c1=O)Nc1ccccc1
2 | inactive | O=C(CCCCCCC1=N[C@@H](COCc2ccccc2)CO1)Nc1ccccc1
3 | inactive | CSc1c(NCCCCCC(=O)Nc2ccccc2)c(=O)c1=O
4 | inactive | CN(O)c1c(SCCCCC(=O)Nc2ccccc2)c(=O)c1=O
5 | inactive | O=C(CCCCCC/N=c1/c(S)c(O)c1=O)Nc1ccccc1
6 | inactive | O=C(CCCCCCNc1c(O)c(=O)c1=O)Nc1ccccc1
7 | inactive | O=C(CCCCNc1c(O)c(=O)c1=O)Nc1ccccc1
8 | inactive | CSc1c(NCCCCCCC(=O)Nc2ccccc2)c(=O)c1=O
9 | inactive | O=C(CCCCCNc1c(O)c(=O)c1=O)Nc1ccccc1
10 | inactive | O=C(CCCC/N=c1/c(S)c(O)c1=O)Nc1ccccc1
11 | inactive | CSc1c(NCCCCC(=O)Nc2ccccc2)c(=O)c1=O
12 | inactive | COc1ccc(COC(CCCCCNC(=O)NO)C(=O)Nc2ccccc2)cc1 (stereo not drawn)
13 | inactive | O=C(CCCCCCC1=N[C@@H](CO)CO1)Nc1ccccc1
